From PubChem BioAssay AID1259407 (Chemical Carcinogenesis Research Information System (CCRIS), 2018) come the findings set out here.

Molecules are shown by their SMILES. Active and inactive are the calls of the source. How the calls were made is not given here.

This data set has as its system CCRIS mutagenicity, Ames/micronucleus/aberration tests. The data set is described as follows: CCRIS mutagenicity studies.
The mark [1] stands for this setting: Test System: AMES SALMONELLA TYPHIMURIUM, Strain/Indicator: TA98, Metabolic Activation: NONE, Method: PREINCUBATION
[2] abbreviates: Test System: AMES SALMONELLA TYPHIMURIUM, Strain/Indicator: TA98, Metabolic Activation: NONE, Method: STANDARD PLATE.
The mark [3] stands for this setting: Test System: AMES SALMONELLA TYPHIMURIUM, Strain/Indicator: TA98, Metabolic Activation: RAT, LIVER, S-9, AROCLOR 1254, Method: STANDARD PLATE.
Where [4] appears, read: Test System: AMES SALMONELLA TYPHIMURIUM, Strain/Indicator: TA100, Metabolic Activation: NONE, Method: STANDARD PLATE.
Where [5] appears, read: Test System: AMES SALMONELLA TYPHIMURIUM, Strain/Indicator: TA1535, Metabolic Activation: NONE, Method: STANDARD PLATE.
Setting [6] is: Test System: AMES SALMONELLA TYPHIMURIUM, Strain/Indicator: TA1537, Metabolic Activation: NONE, Method: STANDARD PLATE.
The mark [7] stands for this setting: Test System: AMES SALMONELLA TYPHIMURIUM, Strain/Indicator: TA100, Metabolic Activation: NONE, Method: PREINCUBATION

With `O=[N+]([O-])c1ccccc1SSC(Cl)=C(Cl)Cl`, the mutagenic call by setting is: (Test System: AMES SALMONELLA TYPHIMURIUM, Strain/Indicator: TA100(DNP6), Metabolic Activation: NONE, Method: PREINCUBATION) “active; positive”; (Test System: AMES SALMONELLA TYPHIMURIUM, Strain/Indicator: TA100(NR), Metabolic Activation: NONE, Method: PREINCUBATION) “active; positive”.
As to `O=C(O)Nc1ccc(-c2ccccc2)cc1`, the mutagenic call is “active; positive” under setting [1]; “active; positive” (Test System: AMES SALMONELLA TYPHIMURIUM, Strain/Indicator: TA98, Metabolic Activation: RAT, LIVER, CYTOSOL, Method: PREINCUBATION); “active; positive” (Test System: AMES SALMONELLA TYPHIMURIUM, Strain/Indicator: TA98, Metabolic Activation: RAT, LIVER, MICROSOMES, Method: PREINCUBATION).
On to `C[C@]12CC[C@H](OC(=O)/C=C/c3cccc(N(CCCl)CCCl)c3)CC1=CC[C@@H]1[C@@H]2CC[C@]2(C)NC(=O)CC[C@@H]12`, for which the mutagenic call is, setting by setting: under setting [2], “inactive; negative”; under setting [3], “inactive; negative”; under setting [4], “inactive; negative”; (Test System: AMES SALMONELLA TYPHIMURIUM, Strain/Indicator: TA100, Metabolic Activation: RAT, LIVER, S-9, AROCLOR 1254, Method: STANDARD PLATE) “inactive; negative”; under setting [5], “active; positive”; (Test System: AMES SALMONELLA TYPHIMURIUM, Strain/Indicator: TA1535, Metabolic Activation: RAT, LIVER, S-9, AROCLOR 1254, Method: STANDARD PLATE) “active; positive”. In addition, the mutagenic call is, setting by setting: under setting [6], “inactive; negative”; (Test System: AMES SALMONELLA TYPHIMURIUM, Strain/Indicator: TA1537, Metabolic Activation: RAT, LIVER, S-9, AROCLOR 1254, Method: STANDARD PLATE) “inactive; negative”.
Turning to `O=C(O)[C@@H]1CS[C@H](c2ccccc2O)N1C(=O)CCS`, the mutagenic call runs as follows: under setting [2], “inactive; negative”; (Test System: AMES SALMONELLA TYPHIMURIUM, Strain/Indicator: TA98, Metabolic Activation: S-9, Method: STANDARD PLATE) “inactive; negative”; under setting [4], “inactive; negative”; (Test System: AMES SALMONELLA TYPHIMURIUM, Strain/Indicator: TA100, Metabolic Activation: S-9, Method: STANDARD PLATE) “inactive; negative”; under setting [5], “inactive; negative”; (Test System: AMES SALMONELLA TYPHIMURIUM, Strain/Indicator: TA1535, Metabolic Activation: S-9, Method: STANDARD PLATE) “inactive; negative”. In addition, the mutagenic call is “inactive; negative” under setting [6]; “inactive; negative” (Test System: AMES SALMONELLA TYPHIMURIUM, Strain/Indicator: TA1537, Metabolic Activation: S-9, Method: STANDARD PLATE); “inactive; negative” (Test System: AMES SALMONELLA TYPHIMURIUM, Strain/Indicator: TA1538, Metabolic Activation: NONE, Method: STANDARD PLATE); “inactive; negative” (Test System: AMES SALMONELLA TYPHIMURIUM, Strain/Indicator: TA1538, Metabolic Activation: S-9, Method: STANDARD PLATE); “inactive; negative” (Test System: E. COLI, Strain/Indicator: WP2, Metabolic Activation: NONE, Method: STANDARD PLATE); “inactive; negative” (Test System: E. COLI, Strain/Indicator: WP2 UVRA, Metabolic Activation: NONE, Method: STANDARD PLATE). Besides, under “Test System: E. COLI, Strain/Indicator: WP2 UVRA, Metabolic Activation: S-9, Method: STANDARD PLATE”, the mutagenic call is “inactive; negative”.
As for `C=C[C@H]1CN2CC[C@H]1C[C@H]2[C@H](OC(=O)OCC)c1ccnc2ccc(OC)cc12`, the mutagenic call is “inactive; negative” under setting [1]; “inactive; negative” (Test System: AMES SALMONELLA TYPHIMURIUM, Strain/Indicator: TA98, Metabolic Activation: RAT, LIVER, S-9, Method: PREINCUBATION); “inactive; negative” under setting [7]; “inactive; negative” (Test System: AMES SALMONELLA TYPHIMURIUM, Strain/Indicator: TA100, Metabolic Activation: RAT, LIVER, S-9, Method: PREINCUBATION).
Turning to `Cc1cnccn1`, the mutagenic call runs as follows: under setting [1], “inactive; negative”; (Test System: AMES SALMONELLA TYPHIMURIUM, Strain/Indicator: TA98, Metabolic Activation: RAT, LIVER, S-9, AROCLOR 1254, Method: PREINCUBATION) “inactive; negative”; under setting [7], “inactive; negative”; (Test System: AMES SALMONELLA TYPHIMURIUM, Strain/Indicator: TA100, Metabolic Activation: RAT, LIVER, S-9, AROCLOR 1254, Method: PREINCUBATION) “inactive; negative”; (Test System: AMES SALMONELLA TYPHIMURIUM, Strain/Indicator: TA102, Metabolic Activation: NONE, Method: PREINCUBATION) “inactive; negative”; (Test System: AMES SALMONELLA TYPHIMURIUM, Strain/Indicator: TA102, Metabolic Activation: RAT, LIVER, S-9, AROCLOR 1254, Method: PREINCUBATION) “inactive; negative”.
`CCOC(Cl)CCl` (stereo not drawn): the mutagenic call was “active; positive (structural and ploidy changes)” (End Point: IN VITRO CHROMOSOMAL ABERRATIONS, Test System: CHL CELLS, Metabolic Activation: NONE); “active; positive (structural changes)” (End Point: IN VITRO CHROMOSOMAL ABERRATIONS, Test System: CHL CELLS, Metabolic Activation: RAT, LIVER, S-9, SODIUM PHENOBARBITAL AND 5,6-BENZOFLAVONE).
On to `CC1(C)CCC[C@]2(C)C(C=O)C(C=O)=CC[C@@H]12` (stereo partly drawn), for which the mutagenic call by setting is: under setting [3], “inactive; negative”; under setting [4], “inactive; negative”; (Test System: AMES SALMONELLA TYPHIMURIUM, Strain/Indicator: TA2637, Metabolic Activation: NONE, Method: STANDARD PLATE) “inactive; negative”; (Test System: CHINESE HAMSTER V-79, Strain/Indicator: V-79/6-THIOGUANINE (HGPRT), Metabolic Activation: NONE) “inactive; negative”.
Regarding `O=C(O)C1=NN(c2ccc(S(=O)(=O)O)cc2)C(=O)C1N=Nc1ccc(S(=O)(=O)O)cc1` (stereo not drawn), the mutagenic call under setting [2] was “inactive; negative”; the mutagenic call (Test System: AMES SALMONELLA TYPHIMURIUM, Strain/Indicator: TA98, Metabolic Activation: RAT LIVER S-9, AROCLOR 1254, Method: STANDARD PLATE) is “inactive; negative”; the mutagenic call under setting [4] is “inactive; negative”; the mutagenic call (Test System: AMES SALMONELLA TYPHIMURIUM, Strain/Indicator: TA100, Metabolic Activation: RAT LIVER S-9, AROCLOR 1254, Method: STANDARD PLATE) is “inactive; negative”; the mutagenic call (Test System: Mouse lymphoma, Strain/Indicator: L5178Y (tk+/tk-), Metabolic Activation: None, Method: Suspension/plate) is “inactive; negative”; the mutagenic call (Test System: Mouse lymphoma, Strain/Indicator: L5178Y (tk+/tk-), Metabolic Activation: Rat, Liver, S-9, Aroclor 1254, Method: Suspension/plate) was “inactive; negative”.
